Experimental data taken from patent US4605744A, “Imidazole derivatives” (Hoffmann-La Roche Inc., priority 1985, dated 1986).
≈ marks a conversion by molar mass, not a printed value. Where “and” joins values, the source holds several entries; their conditions need not be identical. Equal values may be shown once. Read-outs that look alike come from different tables or passages of the source.

How the values were obtained:
Test in all cases: In vitro antibacterial activity (MIC)
Type in all cases: cell-based
[1] = system: P. aeruginosa B; details: Pseudomonas aeruginosa, read-out: MIC
Outline: (§1)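 Mueller-Hinton broth carries the compound at 128–0.008 μg/ml; diluted drug may be used fresh or stored frozen at -10° to -70° C before use. Wells are seeded with a 10^-2 dilution of overnight culture and incubated overnight at 37° C.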

[2] = system: S. pneumoniae 6301
Outline: as §1

[3] = system: E. cloacae 9570A; details: Enterobacter cloacae
Outline: as §1

[4] = system: P. aeruginosa 6148B
Outline: as §1

[5] = system: C. freundii CDC6; details: Citrobacter freundii, CDC6
Outline: as §1

[6] = system: S. faecalis C1
Outline: as §1

[7] = system: P. aeruginosa 503-56
Outline: as §1

[8] = system: S. marcescens S5
Outline: as §1

[9] = system: P. aeruginosa POW 151; details: Pseudomonas aeruginosa, POW151
Outline: as §1

[10] = system: E. coli R-563; details: Escherichia coli, R563
Outline: as §1

[11] = system: K. pneumoniae 35
Outline: as §1

[12] = system: S. marcescens S3; details: Serratia marcescens
Outline: as §1

[13] = system: E. coli 5152
Outline: as §1

[14] = system: E. cloacae 9295; details: Enterobacter cloacae, 9295
Outline: as §1

[15] = system: P. aeruginosa 5712; details: Pseudomonas aeruginosa, 5712
Outline: as §1

[16] = system: P. aeruginosa 5700
Outline: as §1

[17] = system: K. pneumoniae 503-964
Outline: as §1

[18] = system: P. rettgeri ATCC 9250; details: Providencia rettgeri, ATCC9250
Outline: as §1

[19] = system: K. pneumoniae HE7; details: Klebsiella pneumoniae
Outline: as §1

[20] = system: S. pneumoniae 6302
Outline: as §1

[21] = system: P. aeruginosa Stone 130
Outline: as §1

[22] = system: P. mirabilis 2; details: Proteus mirabilis, 2
Outline: as §1

[23] = system: S. aureus Smith
Outline: as §1

[24] = system: E. cloacae 214; details: Enterobacter cloacae, 214
Outline: as §1

[25] = system: S. aureus Giorgio; details: Staphylococcus aureus
Outline: as §1

[26] = system: S. marcescens SM; details: Serratia marcescens
Outline: as §1

[27] = system: S. marcescens S2; details: Serratia marcescens
Outline: as §1

[28] = system: S. marcescens S147; details: Serratia marcescens
Outline: as §1

[29] = system: S. pyogenes 503-782
Outline: as §1

[30] = system: S. pneumoniae SC
Outline: as §1

[31] = system: K. pneumoniae 5096
Outline: as §1

CC1(C)S[C@@H]2[C@H](/N=C/N3CCCCCC3)C(=O)N2[C@H]1C(=O)O [Amdinocillin, amdinocillin, reference compound]
MIC [1]: 0.062 µg/mL (≈ 0.191 µM)
MIC ([2]; S. pneumoniae 6301): 1 µg/mL (≈ 3.07 µM)
MIC ([2]; Streptococcus pneumoniae, 6301, S. pneumoniae 6301, read-out: MIC): 2 µg/mL (≈ 6.15 µM)
MIC ([3]; 9570A): 0.125 µg/mL (≈ 0.384 µM)
MIC ([3]; read-out: MIC): 0.062 µg/mL (≈ 0.191 µM)
MIC [4]: 128 µg/mL (≈ 393 µM)
MIC ([4]; Pseudomonas aeruginosa, 6148B): > 128 µg/mL
MIC ([4]; Pseudomonas aeruginosa, read-out: MIC): 64 µg/mL (≈ 197 µM)
MIC [5]: 0.125 µg/mL (≈ 0.384 µM)
MIC ([6]; Enterococcus faecalis, C1, S. faecalis C1): > 128 µg/mL
MIC ([6]; S. faecalis C1): 128 µg/mL (≈ 393 µM)
MIC ([7]; P. aeruginosa 503-56): 128 µg/mL (≈ 393 µM)
MIC ([7]; Pseudomonas aeruginosa, 50356, P. aeruginosa 503-56): > 128 µg/mL
MIC ([8]; S. marcescens S5): 0.5 µg/mL (≈ 1.54 µM)
MIC ([8]; Serratia marcescens, S5, S. marcescens S5, read-out: MIC): 1 µg/mL (≈ 3.07 µM)
MIC [9]: > 128 µg/mL
MIC [10]: 0.125 µg/mL (≈ 0.384 µM)
MIC ([11]; Klebsiella pneumoniae, 35, K. pneumoniae 35): 0.125 µg/mL (≈ 0.384 µM)
MIC ([11]; Klebsiella pneumoniae, K. pneumoniae 35, read-out: MIC): 0.062 µg/mL (≈ 0.191 µM)
MIC ([12]; S3, S. marcescens S3): 0.125 µg/mL (≈ 0.384 µM)
MIC ([12]; S. marcescens S3, read-out: MIC): 0.062 µg/mL (≈ 0.191 µM)
MIC ([13]; E. coli 5152): 16 µg/mL (≈ 49.2 µM)
MIC ([13]; Escherichia coli, 5152, E. coli 5152, read-out: MIC): 8 µg/mL (≈ 24.6 µM)
MIC [14]: 0.125 µg/mL (≈ 0.384 µM)
MIC [15]: > 128 µg/mL
MIC ([16]; P. aeruginosa 5700): > 128 µg/mL
MIC ([16]; Pseudomonas aeruginosa, 5700, P. aeruginosa 5700): 128 µg/mL (≈ 393 µM)
MIC ([17]; Klebsiella pneumoniae, 503964, K. pneumoniae 503-964): 0.125 µg/mL (≈ 0.384 µM)
MIC ([17]; Klebsiella pneumoniae, 503964, K. pneumoniae 503-964, read-out: MIC): 0.062 µg/mL (≈ 0.191 µM)
MIC [18]: 0.125 µg/mL (≈ 0.384 µM)
MIC ([19]; HE7, K. pneumoniae HE7): > 128 µg/mL
MIC ([19]; K. pneumoniae HE7, read-out: MIC): 64 µg/mL (≈ 197 µM)
MIC ([20]; S. pneumoniae 6302): 2 µg/mL (≈ 6.15 µM)
MIC ([20]; Streptococcus pneumoniae, 6302, S. pneumoniae 6302, read-out: MIC): 4 µg/mL (≈ 12.3 µM)
MIC [21]: 128 µg/mL (≈ 393 µM)
MIC ([21]; Pseudomonas aeruginosa, STONE130): > 128 µg/mL
MIC [22]: 0.125 µg/mL (≈ 0.384 µM)
MIC ([23]; S. aureus Smith): 8 µg/mL and 16 µg/mL
MIC ([23]; Staphylococcus aureus): 16 µg/mL (≈ 49.2 µM)
MIC [24]: 0.125 µg/mL (≈ 0.384 µM)
MIC [25]: 32 µg/mL (≈ 98.3 µM)
MIC [26]: 0.125 µg/mL (≈ 0.384 µM)
MIC ([26]; read-out: MIC): 0.062 µg/mL (≈ 0.191 µM)
MIC ([27]; S2, S. marcescens S2): 0.125 µg/mL (≈ 0.384 µM)
MIC ([27]; S. marcescens S2, read-out: MIC): 0.25 µg/mL (≈ 0.768 µM)
MIC ([28]; S147, S. marcescens S147): 0.125 µg/mL (≈ 0.384 µM)
MIC ([28]; S. marcescens S147, read-out: MIC): 0.062 µg/mL (≈ 0.191 µM)
MIC ([29]; Streptococcus pyogenes, 503782, S. pyogenes 503-782): > 128 µg/mL
MIC ([29]; Streptococcus pyogenes, 503782, S. pyogenes 503-782, read-out: MIC): 1 µg/mL (≈ 3.07 µM)
MIC [30]: 1 µg/mL (≈ 3.07 µM)
MIC ([30]; Streptococcus pneumoniae, read-out: MIC): 2 µg/mL (≈ 6.15 µM)
MIC ([31]; Klebsiella pneumoniae, 5096, K. pneumoniae 5096): 128 µg/mL (≈ 393 µM)
MIC ([31]; Klebsiella pneumoniae, K. pneumoniae 5096, read-out: MIC): 32 µg/mL (≈ 98.3 µM)
